Measurements published in patent US20140100183A1, “CENTRAL ADMINISTRATION OF STABLE FORMULATIONS OF THERAPEUTIC AGENTS FOR CNS CONDITIONS” (The Regents of the University of Colorado, a body corporate, priority 2006, published 2014).
Counter-ions that a name gives are not always drawn. Like-named read-outs stand apart in the source and are kept apart here. Marks after values point to notes of the source that are not given here.

How the values were obtained:
[1] = cited from earlier work; for Comments: solubility: qualitative, solvents as given in the source
[2] = test system: patients diagnosed with psychotic disorders; test: ICV or cisterna magna treatment of psychotic disorders (Example 5); conditions: central administration, 0.01 to 0.1 mg per hour, 1 week
Method: A 5 mg/ml solution of the active agent is solubilized in aqueous solution using beta-hydroxypropyl cyclodextrin, made isotonic with NaCl, and the pH is maintained at 7.4 with 10 mM sodium phosphate. […] The stabilized solution is inserted into a fluid reservoir attached to a Medtronic Synchromed-II intrathecal delivery system. The stabilized formulation is intracerebroventricularly or cistema magna injected into patients diagnosed with psychotic disorders.
Injection is continuous, using a computerized pump to provide a delivery rate of 0.01 to 0.1 mg of the active agent per hour, depending on the severity of symptoms.

[3] = test system: anxiety in rats (elevated plus maze, open field); test: Elevated plus maze and open field conflicts test after ICV antidepressants; type: in vivo, rat; conditions: for Rodent ICV dose: anxiety reduction; for % of Oral dose: rodent ICV dose vs human oral equivalent
Method: Various antidepressants were injected via ICV, and animals monitored in standard elevated plus maze and open field conflicts test.
Rats are placed in the center of a pluz-shaped maze. The arms are 13 cm wide; two arms were open and two are enclosed by 32 cm high walls. The maze is elevated off the flor by 51 cm. The percent of time and distance traveled in each type of arm over the 4 minute test period is calculated by computer. Increased time and distance traveled in the open arms is thought to reflect anxiolytic activity.
Rats are place against 1 side of a 104 cm square box with 32 cm sides. The activity of the rat is monitored by computer over a 4 minute testing period. A computer divides the openfied space into 25 equal squares arranged into an outer:ring” of 16 squares, a middle region of 8 squares and a central square. The percent of time and distarnce traveled in the center square by rats receiving the drug are calculated and compared to rats receiving a saline control. Increased time and distance traveled in the center square is thought to reflect anxiolytic activity.

human = conditions: effective daily dose, oral; cited from earlier work
[4] = test system: patients diagnosed with epilepsy disorders; test: ICV or cisterna magna treatment of epilepsy (Example 6); type: in vivo, human; conditions: central administration, 0.01 to 0.1 mg per hour, 1 week
Excerpt: After 1 week of treatment, epileptic frequency is reduced.

[5] = test system: pentylenetetrazole (PTZ) seizure induction in rats; test: Pentylenetetrazole (PTZ) seizure induction model, ICV administration; type: in vivo, rat; conditions: for % Change: drug group vs vehicle group (-V); for Rodent ICV dose: effective daily dose, blocking seizures; for Efficacy: effective in blocking seizures; for % of Oral dose: rodent ICV dose vs human oral equivalent
Method: Rats are anesthetized, placed in a stereotaxic instrument and a burr hole opened over one anterior lateral ventricle. A cannula is lowered to the ventricle and 5 μl of solution containing the drug is injected into the ventricle over 10 minutes. The incision is then closed and the animal allowed to regain consciousness and remain conscious for 10 minutes. After 10 minutes has elapsed, pentylenetetrazole (PTZ, 10 mg/ml in saline) is injected through a tail-vein catheter at a constant rate of infusion (1 ml/min, Razel syringe pump) until a motor seizure is induced. PTZ seizures are identified as myoclonic jerking followed by clonus and tonus. The time from the initial application of PTZ to the first clonic seizure (i.e., forelimb clonus) is measured and defined as “latency to seiqure onset”. The total amount of PTZ infused is calculated and then divided by each rat;s body weight to obtain the dose (mg/kg) of PTZ. The dose required to attain status epilepticus is compared to the PTZ dose without antiseizure medication.

[6] = test system: sensory inhibition deficits in DBA/2 mice; test: Sensory inhibition (paired auditory stimuli, TC ratio) after acute ICV administration; type: in vivo, mouse; conditions: 5 μg dose ICV
Method: The following methods were used to record the sensory inhibition.
The deficit in sensory inhibition can be quantified using the paired stimulus paradigm in which 2 identical stimuli are delivered 0.5 seconds apart and the electrophysiological response to each is recorded. In normal individuals, the response to the second, or test, stimulus, occurring 50 msec after stimulus onset, is reduced compared to the response to the first, or conditioning stimulus. However, schizophrenia patients have similar magnitude responses to both stimuli: The “TC ratio” is calculated by dividing the test amplitude by the conditioning amplitude. […] In normal individuals, the TC ratio is generally less than 0.4 while schizophrenia patients commonly have TC ratios above 0.5 and often approaching or exceeding 1.0.
In the present study, briefly, 5 baseline records were obtained in response to the paired auditory stimuli, prior to drug administration. […] Recordings were obtained at 5 minute intervals for 90 minutes post injection. Data analyzed included the amplitude of the response to the first stimulus (conditioning amplitude), amplitude of the response to the second stimulus (test amplitude) and the TC ratio (test amplitude/conditioning amplitude). This final parameter gives a measure of the level of inhibition in the circuit initiated by the conditioning stimulus. […] DBA/2 mice routinely have TC ratios of ≧0.8.

[7] = test system: primary mouse cortical neuron cultures; test: Toxicity in primary mouse cortical neuron cultures (MTT); conditions: 24 hours, 0.002% to 0.1% in culture media
Method: In addition, a preliminary assessment of the toxicity of cyclodextrin in primary mouse cortical neuron cultures was performed. […] After dissection, and cellular dissociation, the cells were washed with Dulbecco's Modified Eagle's Medium with 10% fetal bovine serum. Following recentrifugation, the cells resuspended in plating medium, counted with trypan blue and plated at a constant density of 6.5×10^4 cells per well in a 96-well pre-coated plate. […] The cultures were maintained at 37° C. in a humidified atmosphere of 5% CO2. […] The cultures were incubated and cell toxicity assayed at 24, 48 and 72 hours. Viability was assessed by the MTT (3-(4,5 diethylthiazol-2-yl)-2,5)diphenyltetrazolium bromide) assay, CellTiter 96 Non-radioactive cell Proliferation Assay (Promega, Madison Wis.) and by visual examination.

Cl.O=c1n(CCCN2CCN(c3cccc(Cl)c3)CC2)nc2ccccn12 [TRAZODONE]
Solubility in water ([1]; at 20 C.): insoluble in water <0.1 g/100 mL at 20 C.

Clc1ccc2c(c1)C(N1CCNCC1)=Nc1ccccc1O2 [AMOXAPINE, 2-Chloro-11-(1-piperazinyl)dibenz(b,f)(1,4) oxazepine]
Comments: solubility [1]: Soluble 1 in 460 of water, 1 in 15 of boiling water, 1 in 3 of alcohol, 1 in 45 of chloroform, 1 in 3 of ether, and 1 in 135 of benzene.

NC(=O)N1c2ccccc2CC(=O)c2ccccc21 [OXCARBAZEPINE, 10,11-Dihydro-10-oxo-5H-dibenz[b,f]azepine-5-carboxamide]
Comments: solubility [1]: Freely soluble in water, in alcohol, and in dichloromethane

CCN(CC)C(=S)SSC(=S)N(CC)CC [ANTABUSE, bis (diethylthiocarbamoyl) disulfide]
Solubility in water ([1]; at 22 C.): Soluble in water <0.1 g/100 mL at 22 C.

Cc1nnc2n1-c1ccc(Cl)cc1C(c1ccccc1Cl)=NC2 [TRIAZOLAM, 8-chloro-6-(o-chlorophenyl)-1-methyl-4H-s-triazolo-(4,3-alpha)(1,4) benzodiazepine]
Comments: solubility [1]: practically insoluble in water and soluble in alcohol and in acetone

O=C1Nc2ccc(Cl)cc2C(c2ccccc2Cl)=NC1O (stereo not drawn) [LOREZAPAM, 7-chloro-5-(0-chlorophenyl)-1,3-dihydro-3-hydroxy-2H-1,4-benzo-diazepin-2-one]
Comments: solubility [1]: Very soluble in organic solvents.

[Li] [LITHIUM]
Solubility in water ([1]; at 22 C.): water 0.1-0.5 g/100 mL

OCCOCCN1CCN(C2=Nc3ccccc3Sc3ccccc32)CC1 [Quetiapine]
alleviation of psychotic symptoms [2]: efficacious therapeutic alleviation of psychotic symptoms

NNCCc1ccccc1 [Phenelzine, 2-Phenylethylhydrazine]
Rodent ICV dose ([3]; effective daily dose): 1.8 mg/kg | efficacy following ICV administration ([3]; elevated plus maze and open field conflicts test): efficacy | Efficacy ([3]; rat, in vivo): anxiety reduction | % of Oral dose [3]: 120% | Human oral equivalent (human): 1.5 mg/kg

CC(C)NCC(O)COc1cccc2ccccc12.Cl (stereo not drawn) [PROPRANOLOL, 1-(Isopropylamino)-3-(1-naphthyloxy)-2-propanol hydrochloride]
Comments: solubility [1]: soluble in methanol or ethanol but which has no appreciable solubility in water at physiological pH

O=C(CCCN1CCC(O)(c2ccc(Cl)cc2)CC1)c1ccc(F)cc1 [HALOPERIDOL, 4-[4-(p-chlorophenyl)-4-hydroxypiperidino]-4′-fluorobutyrophenone]
Comments: solubility [1]: sparingly soluble in water and soluble in ethanol

O=C1Cc2cc(CCN3CCN(c4nsc5ccccc45)CC3)c(Cl)cc2N1 [Geodon]
alleviation of psychotic symptoms [2]: efficacious therapeutic alleviation of psychotic symptoms

O=C1NC(=O)C(c2ccccc2)(c2ccccc2)N1 [PHENYTOIN, 5,5-diphenyl-2,4-imidazolidinedione]
alleviation of seizures [4]: efficacious therapeutic alleviation of seizures | Comments: solubility [1]: Very soluble in water

CN1CCN(CC/C=C2/c3ccccc3Sc3ccc(S(=O)(=O)N(C)C)cc32)CC1 [THIOTHIXINE, cis isomer of N,N-dimethyl-9-[…]3-(4-methyl-1-piperazinyl)-propylidene[…] thioxanthene-2-sulfonamide.]
Comments: solubility [1]: Slightly soluble in water; soluble in alcohol and in methyl alcohol

CCCCNc1cc(C(=O)O)cc(S(N)(=O)=O)c1Oc1ccccc1 [Bumex]
% Change [5]: 90% | Rodent ICV dose [5]: 0.000364 mg/kg | Efficacy [5]: effective in blocking | % of Oral dose [5]: 1.1% | alleviation of seizures [4]: efficacious therapeutic alleviation of seizures | Human oral equivalent (human): 0.033 mg/kg

NC(=O)N1c2ccccc2C=Cc2ccccc21 [Tegretol, 5H-dibenz[b,f]azepine-5-carboxamide]
% Change [5]: 60% | Rodent ICV dose [5]: 0.00888 mg/kg | Efficacy [5]: effective in blocking | % of Oral dose [5]: 0.13% | alleviation of seizures [4]: efficacious therapeutic alleviation of seizures | Human oral equivalent (human): 6.66 mg/kg | Comments: solubility [1]: Slightly soluble in water and in alcohol

COc1cc2nc(N3CCN(C(=O)c4ccco4)CC3)nc(N)c2cc1OC.Cl [PRAZOSIN, 2-[4-(2-Furoyl)piperazin-1-yl]-6,7 dimethoxyquinazolin-4-ylamine hydrochloride]
Solubility in water [1]: very slightly soluble in water (<1 mg/ml) and readily soluble in organic solvents such as ethanol and acetone | Comments: solubility [1]: very slightly soluble in water (<1 mg/ml) and readily soluble in organic solvents such as ethanol and acetone

Cc1nnc2n1-c1ccc(Cl)cc1C(c1ccccc1)=NC2 [ALPRAZOLAM, 8-Chloro-1-methyl-6-phenyl-4H-s-triazolo(4,3-a) (1,4) benzodiazepine]
Comments: solubility [1]: very slightly soluble in water

CCCC(CCC)C(=O)O [Valproate, 2-Propylpentanoic acid]
Human oral equivalent (human): 1 mg/kg

C=CCN1CC[C@]23c4c5ccc(O)c4O[C@H]2C(=O)CC[C@@]3(O)[C@H]1C5 [NALOXONE, (−)-17-Allyl-4, 5α-epoxy-3,14-dihydroxymorphinan-6-one hydrochloride]
Comments: solubility [1]: freely soluble in USP alcohol and very soluble in water

CN(C)CCCN1c2ccccc2CCc2ccc(Cl)cc21 [Clomipramine, 3-(3-Chloro-10,11-dihydro-5H-dibenz[b,f]azepin-5-yl)propyldimethylamine hydrochloride]
Rodent ICV dose ([3]; effective daily dose): 0.37 mg/kg | % of Oral dose [3]: 8.8% | Human oral equivalent (human): 4.16 mg/kg

CNCCC(Oc1ccc(C(F)(F)F)cc1)c1ccccc1 (racemic) [Fluoxetine, (+/−)-N-Methyl-3-phenyl-3-(alpha,alpha,alpha-trifluoro-p-tolyloxy)propylamine hydrochloride]
Rodent ICV dose ([3]; estimated effective dose): 0.74** mg/kg | % of Oral dose [3]: 224% | Human oral equivalent (human): 0.33 mg/kg

O=C(O)c1ccccc1O [SALICYLIC ACID, 2-Hydroxybenzoic acid]
Comments: solubility [1]: almost insoluble in water

CN(C)CCCN1c2ccccc2CCc2ccccc21 [IMIPRAMINE, 10,11-dihydro-N,N-dimethyl-5H-Dibenz[b,f]azepine-5-propanamine]
Comments: solubility [1]: insoluble in the common organic solvents, but very soluble in water.

CCC(=O)C(CC(C)N(C)C)(c1ccccc1)c1ccccc1 (stereo not drawn) [METHADONE, 1,1-Diphenyl-1-(2-dimethylaminopropyl)-2-butanone]
Comments: solubility [1]: Soluble in water; freely soluble in alcohol and in chloroform; practically insoluble in ether and in glycerol

Cc1nccn1CC1CCc2c(c3ccccc3n2C)C1=O (stereo not drawn) [ondansetron]
TC ratio [6]: significantly reduced TC ratios

O=C1CN=C(c2ccccc2)c2cc([N+](=O)[O-])ccc2N1 [NITRAZEPAM, 1,3-Dihydro-7-nitro-5-phenyl-2H-1,4-benzodiazepin-2-one]
Comments: solubility [1]: Soluble 1 in 12 of water, 1 in 14 of alcohol, and 1 in 3.5 of chloroform; insoluble in ether; freely soluble in methyl alcohol

OCCOCCN1CCN(C(c2ccccc2)c2ccc(Cl)cc2)CC1 (stereo not drawn) [HYDROXYZINE, 2-[2-[4-(p-chlorobenzhydryl)-1-piperazinyl]ethoxy]ethanol dihydrochloride.]
Comments: solubility [1]: slightly soluble in water and isopropyl alcohol, sparingly soluble in ethanol

CCN(CC)CCN1C(=O)CN=C(c2ccccc2F)c2cc(Cl)ccc21 [FLURAZEPAM, 7-chloro-1-[2-(diethylamino)ethyl]-5-(o-fluorophenyl)-1,3-dihydro-2H-1,4-benzodiazepin-2-one dihydrochloride]
Comments: solubility [1]: Soluble in water, in alcohol, and in 0.1N hydrochloric acid.

Nc1nnc(-c2cccc(Cl)c2Cl)c(N)n1 [Lamictal]
Human oral equivalent (human): 3.33 mg/kg

cyclodextrin
toxicity of cyclodextrin alone [7]: no toxicity

CC(NC(C)(C)C)C(=O)c1cccc(Cl)c1.Cl (stereo not drawn) [BUPROPION, 1-(3-chlorophenyl)-2-[(1,1-dimethylethyl)amino]-1-propanone hydrochloride]
Comments: solubility [1]: freely soluble in water and soluble in alcohol and in chloroform.

CCc1nn(CCCN2CCN(c3cccc(Cl)c3)CC2)c(=O)n1CCOc1ccccc1 [NEFAZODONE, 2-(3-(4-(3-chlorophenyl)-1-piperazinyl)propyl)-5-ethyl-2,4-dihydro-4-(2-phenoxyethyl)-3H-1,2,4-triazol-3-one]
Solubility in water ([1]; at 25 C.): Soluble in water <0.1 g/100 mL at 25 C.

O=C1CCc2ccc(OCCCCN3CCN(c4cccc(Cl)c4Cl)CC3)cc2N1 [Aripiprazole]
alleviation of psychotic symptoms [2]: efficacious therapeutic alleviation of psychotic symptoms

(−)-trans-4R-(4′- fluorophenyl)-3S-((3′,4′- methylenedioxyphenoxy) methyl)piperidine [PAROXETINE]
Comments: solubility [1]: soluble in alcohol and poorly soluble in water

CC1=CC(=O)N2CC(=O)N(C)c3ccc(Cl)cc3C2(c2ccccc2)O1 (stereo not drawn) [KETAZOLAM, 11-Chloro-8,12b-dihydro-2,8-dimethyl-12b-phenyl-4H-[1,3]oxazino[3,2-d][1,4]benzodiazepine-4,7(6H)-dione]
Comments: solubility [1]: Practically insoluble in water; slightly soluble in alcohol; freely soluble in chloroform
